# Data: US10912297B2, “Phenoxyhalogenphenylamidines and the use thereof as fungicides” (priority 2015, dated 2021)
# Read-outs that look alike come from different tables or passages of the source.
# Experiments:
# [1] = test system: soy bean plants; assay: Plant compatibility test using soy bean plants; format: in vivo; conditions: soy bean young plants sprayed at 500 ppm, evaluated 6 days after application; 0% no damages, 100% totally damaged
# Protocol: [table] To produce a suitable preparation of active compound, 1 part by weight of active compound is mixed with the stated amounts of solvent and emulsifier, and the concentrate is diluted with water to the desired concentration. Young plants are sprayed with the preparation of active compound at the stated application rate. The plants are then placed in a greenhouse at approximately 21° C. and a relative atmospheric humidity of approximately 80%. The test is evaluated 6 days after application and comprises plant damages like leaf deformation, chlorosis, necrosis, shoot damage or stunting. 0% means no damages are observed, while 100% means that the plants are totally damaged.
# [2] = Photolysis stability test; format: physicochemical; conditions: dried film in MTP, irradiated at 30° C. and 480 W/m^2 (SUNTEST), first order degradation assumed
# Protocol: The stability towards photolysis of the phenylamidines described in the prior art is good but an improved stability towards photolysis may be an advantage as it could offer a longer lasting efficacy when applied to plants by foliar application. The improved stability towards photolysis was proven by a […] stability test as described below: To produce a suitable preparation of active compound for the photolysis stability test, a 1000 ppm stock solution (1 mg/mL) of active compound in acetonitrile is prepared. Aliquots of […] of this stock solution are pipetted in three wells of a Bio-one microtiter plate (MTP) UVStar 96 (Fa. Greiner, Art. No. 655801). The MTP is dried overnight in the dark and then irradiated at 30° C. and 480 W/m^2 with a UV irradiation device SUNTEST XLS+ or SUNTEST CPS (Fa. Atlas). The amount A of the active compound is analyzed by HPLC (UV-peak areas at 210 nm) at five points in time t: 0 h, 2 h, 4 h, 6 h, 24 h by using the following method: 200 μL acetonitrile is added in the respective well of the MTP and the MTP is sealed with a Bio-one sealing foil, viewseal 80/140 mm (Fa. Greiner, Art. No. 676070). The MTPs are sonicated for 3 minutes and analysed by HPLC. The half-life time (T1/2) of each active compound is calculated via linear regression by using the following equations (first order degradation assumed): […]
# [3] = Log P by HPLC on reversed phase columns (EEC directive 79/831 Annex V.A8); format: physicochemical; conditions: reversed phase HPLC column, LC-UV
# Protocol: Measurement of Log P values was performed according to EEC directive 79/831 Annex V.A8 by HPLC (High Performance Liquid Chromatography) on reversed phase columns with the following methods: • ^[a] Log P value is determined by measurement of LC-UV, in an acidic range, with 0.1% formic acid in water and acetonitrile as eluent (linear gradient from 10% acetonitrile to 95% acetonitrile). • ^[b] Log P value is determined by measurement of LC-UV, in a neutral range, with 0.001 molar ammonium acetate solution in water and acetonitrile as eluent (linear gradient from 10% acetonitrile to 95% acetonitrile). […] Lambda-max-values were determined using UV-spectra from 200 nm to 400 nm and the peak values of the chromatographic signals.
# [4] = Hydrolysis stability test in homogeneous aqueous solution; format: physicochemical; conditions: 50° C., 24 hours, first order degradation assumed
# Protocol: To produce a suitable preparation of active compound for the hydrolysis stability test, a 1000 ppm stock solution (1 mg/mL) of active compound in acetonitrile is prepared. Three aliquots of […] are pipetted into HPLC vials and diluted with 750 μL acetonitrile. In each vial 850 μL of the appropriate buffer solution (pH4, pH7 and pH9, CertiPUR, Fa. Merck) is added. The buffer containing HPLC vials are incubated in a heated sample tray at 50° C. for 24 hours. The amount A of the active compound is analyzed by HPLC (UV-peak areas at 210 nm) at eight points in time t: 0 min, 140 min, 350 min, 560 min, 770 min, 980 min, 1190 min, 1400 min. The half-life time (T1/2) of each active compound is calculated via linear regression by using the following equations (first order degradation assumed): [formula] [formula]
# [5] = acidic range, 0.1% formic acid in water and acetonitrile as eluent, read-out: LogP [a]
# [6] = neutral range, 0.001 molar ammonium acetate solution in water and acetonitrile as eluent, read-out: LogP [b]
half-life [2],"chromatographic logP [3, 5]","half-life at 59 µg/mL ([4]; buffer pH 7/acetonitrile, read-out: T1/2 (pH 7) (converted))","half-life at 59 µg/mL ([4]; buffer pH 9/acetonitrile, read-out: T1/2 (pH 9) (converted))","chromatographic logP [3, 6]",SMILES,Necrosis in % [1]
,1.61,,,4.67,"CCN(C)/C=N/c1cc(C)c(Oc2ccccc2)cc1Br [Example I-02, N′-(2-bromo-5-methyl-4-phenoxyphenyl)-N-ethyl-N-methylimidoformamide]",10%
,1.55,,,3.97,"CCN(C)C=Nc1cc(C)c(Oc2ccccc2)cc1F [Example I-03, N-ethyl-N′-(2-fluoro-5-methyl-4-phenoxyphenyl)-N-methylimidoformamide]",
,3.66,,,3.65,"Cc1cc(N)c(Br)cc1Oc1ccccc1 [VIII-02, 2-bromo-5-methyl-4-phenoxyaniline]",

# More lines, now with the values behind:
SMILES,half-life [2],"chromatographic logP [3, 5]","half-life at 59 µg/mL ([4]; buffer pH 7/acetonitrile, read-out: T1/2 (pH 7) (converted))","half-life at 59 µg/mL ([4]; buffer pH 9/acetonitrile, read-out: T1/2 (pH 9) (converted))","chromatographic logP [3, 6]",Necrosis in % [1]
"CCN(C)/C=N/c1cc(C)c(Oc2ccccc2)cc1C [Compound no. 1 known from WO2008/110313, reference compound]",,,,,,90%
"CCN(C)/C=N/c1cc(C)c(Oc2ccccc2)cc1Cl [Example I-01, N′-(2-chloro-5-methyl-4-phenoxyphenyl)-N-ethyl-N-methylimidoformamide]",> 200 h,1.6,45 h,40 h,,50%
"Cc1cc([N+](=O)[O-])c(Br)cc1Oc1ccccc1 [VI-02, 1-bromo-4-methyl-2-nitro-5-phenoxybenzene]",,4.51,,,,
